Data as given in patent US20250032425A1, “FIRST IN CLASS USE OF ESTROGEN RECEPTOR BETA AGONISTS IN TREATING ANGELMAN SYNDROME AND RELEVANT AUTISM SPECTRUM DISORDERS” (BROWN UNIVERSITY, priority 2023, published 2025).
“Also recorded” adds a separate entry of the source.

How the values were obtained:
[1] = test system: UBE3A-deficient iOPCs and iOLs; test: Oligodendrocyte differentiation of UBE3A-deficient iOPCs into iOLs (immunoblotting of Ki67, MAG, CNPase); type: cell-based, human; conditions: AC-186 (10 µM)
Experimental: FIG. 25C: Immunoblotting was conducted to assess the impact of UBE3A depletion on ESR-β expression during oligodendrocyte differentiation. Protein levels of ESR-β in UBE3A-deficient iOPCs and subsequently differentiated iOLs were quantified, normalized against the loading control GAPDH, and expressed relative to the iOPC+siNC control condition (set at 1.0). […] Levels of Ki67 and Myelin Associated Glycoprotein (MAG) were measured in UBE3A-deficient iOPCs and iOLs differentiated from them, normalized against GAPDH, and compared to the iOPC+siNC condition. n=4 experiments. FIG. 25E: Immunoblotting to examine the role of UBE3A for OPC self-renewal and oligodendrocyte differentiation across different developmental stages. Expression of maturation and myelination markers (MBP, MAG, PLP1, CNPase) was quantified following UBE3A depletion timed from iOPCs to pre-iOLs, normalized against TUBB1. and compared to the iOPC+siNC control condition (set at 1.0). n=4 experiments.

[2] = test system: AS iOPCs differentiated into iOLs; test: Differentiation of AS patient-derived iOPCs into iOLs (MAG, CNPase, MBP); type: cell-based, human; conditions: AC-186 10 μM or clemastine 2.5 μM, 72 hours
[3] = test system: Angelman syndrome (AS) mice; test: Hindlimb Clasping test in AS mice; type: in vivo, mouse
Experimental: Animal handling and experimental use strictly followed NIH guidelines and protocols approved by the local Institutional Animal Care and Use Committee (IACUC) of Brown University. In all experiments, Mice were age and gender-matched. Multiple liters were used for all experiments. Weaned mice, housed in groups of two to four per cage, were maintained on a 12-h light/dark cycle with food and water ad libitum.
ESRβ agonist AC-186 treatment in vivo. 10 mg/kg AC-186 was daily IP delivered after dissolved at high concentration (30 mg/ml) in DMSO and further diluted in 20% PEG300. Vehicle groups received the same volume and concentration of diluted DMSO in 20% PEG300. Treatment started at P13 and continued until mice were sacrificed at P42.
The Hindlimb Clasping test, which was administered as delineated in a prior study, Guyenet et al., 2010 (A simple composite phenotype scoring system for evaluating 10 mouse models of cerebellar ataxia. J Vis Exp.), is a neurological evaluation that involves the temporary suspension of mice to observe their hindlimb reflexes, a reliable indicator of central nervous system pathology. This method involves a 10-second observation period during which the mice's hindlimb positions are closely monitored and scored. […]

[4] = test system: ERK/MAPK signaling pathway; test: ERK/MAPK and S6 activation in iOPCs by immunoblotting (phosphorylated to total ratio); type: cell-based, human
Description: FIGS. 20A-20E depict the identification of ESR-β signaling pathway in regulating OPC proliferation impaired by UBE3A depletion. FIG. 20A: Immunofluorescence to track estrogen receptor (ESR) expression in OPCs, by staining of all 3 ESRs, ESR-α, ESR-β and GPER (top panels), in iOPCs co-labeled with UBE3A (middle panels) and DAPI; scale bar, 100 μm. […] FIG. 20B: Immunoblotting to assess OPC expression of individual ESRs, by analyzing protein levels of ESR-α, ESR-β and GPER in iOPCs treated with siNC or siUBE3A, normalized to GAPDH and expressed relative to the siNC condition (set as 1.0). After treatment with siUBE3A, expression of ESR-β was decreased, while expression of GPER was increased. n=5-6 experiments. FIG. 20C: The activation of the ERK/MAPK signaling pathway in OPCs, particularly downstream of ESR-β, was analyzed in iOPCs subjected to 6 knockdown conditions: siNC, siUBE3A, siESRα, siESRβ, and combinations of siUBE3A with siESRα or siESRβ. These were followed by treatment with vehicle control or the ESR-β agonist AC-186 (10 μM, 30 min). The activation of ERK and its substrate S6 was determined by the ratio of phosphorylated to total ERK and S6 levels, adjusted relative to the vehicle control group (standard value of 1.0). ERK phosphorylation and S6 phosphorylation was decreased in cells treated with siESRβ, or siESRβ and siUBE3A combined. n=3 experiments. FIG. 20D: Immunoblotting to evaluate the role of ERK/MAPK activation in the restoration of OPC proliferation following ESR-β activation, with the addition of ERK phosphorylation inhibitors U0126 or PD98059 to UBE3A-depleted OPCs, with or without AC-186 co-treatment (10 μM. 24 hours). The quantification of Ki67 expression and UBE3A levels, being normalized to β-tubulin (TUBB1) and compared to the siNC condition (value of 1.0). n=5 experiments. FIG. 20E: A schematic depicting the regulatory role of ESR-β signaling pathway in OPC proliferation, identified by combining genetic knockdown techniques and pharmacological interventions. Activation of ESR-β selectively triggers the ERK/MAPK pathway, as shown by ERK phosphorylation and the ERK substrate S6 activation, essential for cell proliferation. […] As applicable: statistical significance was determined using One-way ANOVA followed by post-hoc comparisons, with selected comparisons presented. Significance levels marked as *p<0.05. ** p<0.005. *** p<0.001. **** p<0.0001, ns not significant, across relevant comparisons.
The siRNAs targeting UBE3A (Thermo Fisher, #4390815 and #4390816), estrogen receptors (Thermo Scientific #145909 for ESRβ, #145539 for ESRα, and #4390824 for GPER), and negative control (Thermo Scientific, #AM4615) were obtained commercially. The 10-20 nM final concentration was used with Lipofectamine RNAiMAX transfection reagent (Thermo Scientific #13778075) and incubated for at least 48 hours before the treatments of therapeutic compounds or other reagents.
Cells were collected by fast spin down in centrifuge tubes before lysis in RIPA buffer (ThermoFisher, #89901) supplemented with proteinase inhibitor cocktail (Sigma-Aldrich, #5892791001) on ice. Lysates were then spun down at 15000 rpm for 10 mins, the supernatant was collected and mixed with 4× Laemmle sample buffer (Bio-Rad, #1610747) and cooked 10 mins before SDS-PAGE and transferred with Bio-Rad fast transfer system, the membranes were blocked for one hour in 1× Tris Buffered Saline (TBS) with 1% Casein buffer (Bio-Rad, #1610782) and incubated with primary antibodies overnight at 4 degrees. After 3 times washing in TBST washing buffers (ThermoFisher, #28352), the membranes were incubated with HRP conjugated antibodies and developed with Clarity Max™ Western ECL Substrate (Bio-Rad, #1705062) before being filmed in the iBright imaging system.

[5] = UBE3A-depleted iOPCs, AC-186 10 μM, 30 min

Q: With `Oc1ccc(C2(c3ccccc3F)CCC(F)(F)CC2)cc1` [AC-186] as the molecule, how does the “oligodendrocyte differentiation (MAG, CNPase) with treatment at various stages, FIG. 26C” value ([1]; iOPC to pre-iOL to iOL stages) read?
A: beneficial effects on differentiation were observed when administered during the iOPC stage

Q: What about the “oligodendrocyte differentiation (MAG), FIG. 25D” value ([1]; UBE3A-deficient iOLs, clemastine (2.5 μM), 3 days) of the same molecule?
A: no impact on differentiation

Q: What about the “oligodendrocyte differentiation (MAG, CNPase, MBP)” value [2] of the same molecule?
A: no impact on oligodendrocyte differentiation

Q: What about the Hindlimb clasping score ([3]; AS mice, 10 mg/kg daily IP from P13-14, vs AS vehicle, 10 mg/kg) of the same molecule?
A: significantly alleviated neurological symptoms; also recorded: decreased

Q: What about the Hindlimb clasping score ([3]; wildtype mice, 10 mg/kg daily IP) of the same molecule?
A: without affecting wildtype mice

Q: And the UBE3A levels [4, 5]?
A: remained unchanged

Q: And the “activity of ERK” value [4, 5]?
A: restored

Q: What about the “activity of S6” value [4, 5] of the same molecule?
A: restored

Q: And the “effects on ERK/MAPK activation when ESR-α was knocked down” value ([4]; siESRα)?
A: did not reverse the effects of AC-186

Q: What about the “effects on ERK/MAPK activation when ESR-β was knocked down” value ([4]; siESRβ) of the same molecule?
A: negated
